From PubChem BioAssay AID248 (DTP/NCI, 2004)
Values joined by “and” are separate entries in the source; they are usually repeats but may differ in a detail not shown here. Equal entries are not always repeated. Toxic doses and inconclusive results are not listed. Cut-off read from the data, not from the text of the source: active = T/C of 150% or more; inactive = T/C below 125%.

Tested on: L1210 leukemia ip in BDF1 mice, survival T/C
Experiment: NCI In Vivo Anticancer Drug Screen. Data for tumor model L1210 Leukemia (intraperitoneal) in B6D2F1 (BDF1) mice
Conditions: endpoint: mean survival time, higher = longer survival
Method in brief: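 Transplantable tumor model; survival measured in treated vs vehicle control mice. Value = treated/control.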

[1] = dose: 100.0 mg/kg/injection, schedule: Q01DX001 (ip), vehicle: carboxymethylcellulose (CMC)
[2] = dose: 200.0 mg/kg/injection, schedule: Q01DX001 (ip), vehicle: carboxymethylcellulose (CMC)
[3] = dose: 400.0 mg/kg/injection, schedule: Q01DX001 (ip), vehicle: carboxymethylcellulose (CMC)
[4] = dose: 100.0 mg/kg/injection, schedule: Q04DX003 (ip), vehicle: saline
[5] = dose: 200.0 mg/kg/injection, schedule: Q04DX003 (ip), vehicle: saline
[6] = dose: 400.0 mg/kg/injection, schedule: Q04DX003 (ip), vehicle: saline
[7] = dose: 100.0 mg/kg/injection, schedule: Q01DX009 (ip), vehicle: Klucel (hydroxypropylcellulose) (HPC)
[8] = dose: 200.0 mg/kg/injection, schedule: Q01DX009 (ip), vehicle: Klucel (hydroxypropylcellulose) (HPC)
[9] = dose: 100.0 mg/kg/injection, schedule: Q04DX003 (ip), vehicle: Klucel (hydroxypropylcellulose) (HPC)
[10] = dose: 200.0 mg/kg/injection, schedule: Q04DX003 (ip), vehicle: Klucel (hydroxypropylcellulose) (HPC)
[11] = dose: 400.0 mg/kg/injection, schedule: Q04DX003 (ip), vehicle: Klucel (hydroxypropylcellulose) (HPC)
[12] = dose: 50.0 mg/kg/injection, schedule: Q01DX009 (ip), vehicle: saline with Tween-80
[13] = dose: 100.0 mg/kg/injection, schedule: Q01DX009 (ip), vehicle: saline with Tween-80
[14] = dose: 200.0 mg/kg/injection, schedule: Q01DX009 (ip), vehicle: saline with Tween-80

Measured: T/C

COC(=O)Nc1nc2cc(Cl)c(Cl)cc2[nH]1
inactive: [1] 94 % of control | [2] 100 % of control | [3] 100 % of control

COc1cc(N2C(=O)C=CC2=O)ccc1N1C(=O)C=CC1=O
inactive: dose: 5.0 mg/kg/injection, schedule: Q01DX001 (ip), vehicle: saline 111 % of control | dose: 10.0 mg/kg/injection, schedule: Q01DX001 (ip), vehicle: saline 111 % of control

CN(CCO)Cc1ccc(Cl)cc1
inactive: dose: 150.0 mg/kg/injection, schedule: Q01DX015 (ip), vehicle: saline 91 % of control

CCC(NC(=O)CN)C(=O)O (stereo unspecified)
inactive: dose: 100.0 mg/kg/injection, schedule: Q01DX009 (ip), vehicle: saline 100 % of control and 107 % of control | dose: 100.0 mg/kg/injection, schedule: Q04DX002 (ip), vehicle: saline 97 % of control and 101 % of control and 91 % of control | [4] 93 % of control | dose: 200.0 mg/kg/injection, schedule: Q01DX009 (ip), vehicle: saline 102 % of control and 92 % of control | dose: 200.0 mg/kg/injection, schedule: Q04DX002 (ip), vehicle: saline 97 % of control and 105 % of control | [5] 94 % of control | dose: 400.0 mg/kg/injection, schedule: Q01DX009 (ip), vehicle: saline 102 % of control and 111 % of control | dose: 400.0 mg/kg/injection, schedule: Q04DX002 (ip), vehicle: saline 108 % of control and 100 % of control and 118 % of control | [6] 98 % of control

CC(=O)c1cccc(NC(=O)Oc2ccc(Cl)cc2Cl)c1
inactive: [7] 101 % of control | [8] 110 % of control

[N-]=[N+]=Nc1cccc[n+]1[O-]
inactive: [9] 105 % of control | [10] 109 % of control | [11] 105 % of control

Cc1c(N)c(C)c(F)c(-c2c(N)c(C)c(N)c(C)c2F)c1N
inactive: dose: 100.0 mg/kg/injection, schedule: Q01DX001 (ip), vehicle: Klucel (hydroxypropylcellulose) (HPC) 92 % of control | dose: 200.0 mg/kg/injection, schedule: Q01DX001 (ip), vehicle: Klucel (hydroxypropylcellulose) (HPC) 97 % of control | dose: 400.0 mg/kg/injection, schedule: Q01DX001 (ip), vehicle: Klucel (hydroxypropylcellulose) (HPC) 104 % of control

CC(O)(C(=O)O)c1ccccc1O (stereo unspecified)
inactive: dose: 75.0 mg/kg/injection, schedule: Q01DX001 (ip), vehicle: saline 98 % of control | dose: 150.0 mg/kg/injection, schedule: Q01DX001 (ip), vehicle: saline 96 % of control | dose: 300.0 mg/kg/injection, schedule: Q01DX001 (ip), vehicle: saline 93 % of control

CCCCCCCCCC(Br)C(C)(C)COO (stereo unspecified)
inactive: dose: 50.0 mg/kg/injection, schedule: Q01DX001 (ip), vehicle: water 97 % of control | dose: 100.0 mg/kg/injection, schedule: Q01DX001 (ip), vehicle: water 101 % of control | dose: 200.0 mg/kg/injection, schedule: Q01DX001 (ip), vehicle: water 102 % of control

NC(=S)N/N=C/c1ccc(C2CCNCC2)cc1
inactive: dose: 15.0 mg/kg/injection, schedule: Q01DX Z (ip), vehicle: methylcellulose (MC) 102 % of control | dose: 30.0 mg/kg/injection, schedule: Q01DX Z (ip), vehicle: methylcellulose (MC) 92 % of control | dose: 60.0 mg/kg/injection, schedule: Q01DX Z (ip), vehicle: methylcellulose (MC) 104 % of control | dose: 120.0 mg/kg/injection, schedule: Q01DX Z (ip), vehicle: methylcellulose (MC) 104 % of control

Cc1ccc(-c2nn[nH]n2)cc1
inactive: [4] 97 % of control | [5] 96 % of control | [6] 96 % of control

Cc1cc[n+](C2CC(C)(C)c3ccccc3C2=O)cc1 (stereo unspecified)
inactive: dose: 12.5 mg/kg/injection, schedule: Q01DX001 (ip), vehicle: Klucel (hydroxypropylcellulose) (HPC) 100 % of control | dose: 25.0 mg/kg/injection, schedule: Q01DX001 (ip), vehicle: Klucel (hydroxypropylcellulose) (HPC) 113 % of control | dose: 50.0 mg/kg/injection, schedule: Q01DX001 (ip), vehicle: Klucel (hydroxypropylcellulose) (HPC) 98 % of control

O=C(Nc1ccccc1)c1ccc(C(=O)Nc2ccccc2)cc1
inactive: [1] 86 % of control | dose: 100.0 mg/kg/injection, schedule: Q01DX001 (oral), vehicle: carboxymethylcellulose (CMC) 108 % of control | dose: 100.0 mg/kg/injection, schedule: Q01DX009 (ip), vehicle: carboxymethylcellulose (CMC) 101 % of control | dose: 100.0 mg/kg/injection, schedule: Q01DX009 (oral), vehicle: carboxymethylcellulose (CMC) 103 % of control | [2] 87 % of control | dose: 200.0 mg/kg/injection, schedule: Q01DX001 (oral), vehicle: carboxymethylcellulose (CMC) 108 % of control | dose: 200.0 mg/kg/injection, schedule: Q01DX009 (ip), vehicle: carboxymethylcellulose (CMC) 100 % of control | dose: 200.0 mg/kg/injection, schedule: Q01DX009 (oral), vehicle: carboxymethylcellulose (CMC) 105 % of control | [3] 87 % of control | dose: 400.0 mg/kg/injection, schedule: Q01DX001 (oral), vehicle: carboxymethylcellulose (CMC) 104 % of control | dose: 400.0 mg/kg/injection, schedule: Q01DX009 (ip), vehicle: carboxymethylcellulose (CMC) 95 % of control | dose: 400.0 mg/kg/injection, schedule: Q01DX009 (oral), vehicle: carboxymethylcellulose (CMC) 111 % of control | dose: 800.0 mg/kg/injection, schedule: Q01DX001 (ip), vehicle: carboxymethylcellulose (CMC) 92 % of control | dose: 800.0 mg/kg/injection, schedule: Q01DX001 (oral), vehicle: carboxymethylcellulose (CMC) 106 % of control | dose: 800.0 mg/kg/injection, schedule: Q01DX009 (ip), vehicle: carboxymethylcellulose (CMC) 97 % of control

CCOC(=O)c1cc(Br)cc(Br)c1N=NN(C)C
inactive: [12] 105 % of control | [13] 113 % of control | [14] 105 % of control

Cc1c(C)c(C)c(C(=O)O)c(C)c1C
inactive: [12] 93 % of control | [13] 90 % of control | [14] 93 % of control

COc1ccc(Cl)cc1NC(=O)COc1ccc(Cl)cc1
inactive: [7] 96 % of control | [9] 102 % of control | [8] 107 % of control | [10] 122 % of control | dose: 400.0 mg/kg/injection, schedule: Q01DX009 (ip), vehicle: Klucel (hydroxypropylcellulose) (HPC) 96 % of control | [11] 90 % of control

COc1cc(C)c2ccccc2n1
inactive: dose: 100.0 mg/kg/injection, schedule: Q01DX001 (ip), vehicle: saline with Tween-80 100 % of control | dose: 100.0 mg/kg/injection, schedule: Q01DX001 (ip), vehicle: saline 104 % of control | dose: 200.0 mg/kg/injection, schedule: Q01DX001 (ip), vehicle: saline with Tween-80 102 % of control | dose: 200.0 mg/kg/injection, schedule: Q01DX001 (ip), vehicle: saline 103 % of control | dose: 400.0 mg/kg/injection, schedule: Q01DX001 (ip), vehicle: saline with Tween-80 94 % of control | dose: 400.0 mg/kg/injection, schedule: Q01DX001 (ip), vehicle: saline 98 % of control

CC1=NN(c2ccccc2)C(=O)C1(Br)Br
inactive: dose: 100.0 mg/kg/injection, schedule: Q04DX003 (ip), vehicle: saline with Tween-80 96 % of control

BrC1(Br)C23CC=CCC12CCCC3 (stereo unspecified)
inactive: [4] 95 % of control | [5] 100 % of control | [6] 105 % of control
